{
  "source": "patent US6528496B1",
  "about": "“Compositions treating, preventing or reducing elevated metabolic levels” (priority 1992, dated 2003)",
  "key": {"[1]": {"conditions": "2.0 mg oral dose, in the absence of intrinsic factor; cited from earlier work"}, "[2]": {"tested_on": "serum MMA and HC", "assay": "Parenteral B12 treatment of geriatric outpatients with low and low/normal serum B12, response of serum MMA and HC (Example 3)", "format": "in vivo, human", "conditions": "weekly injections of 1.0 mg B12", "description": "A study was conducted with 152 elderly outpatient subjects to measure the prevalence of B12 deficiency in geriatric outpatients as determined by both low serum B12 levels and elevations of MMA and HC, and to determine the response to B12 treatment. Blood samples were obtained on 152 consecutive geriatric outpatients, ages 65-99. Control values were determined from 100 subjects, ages 17-65. The significance of the results marked as “**” in Table 2 are as follows: B12 levels of<200 pg/ml; folate<3.8 ng/ml; homocysteine>16.2 uM; MMA>271 nM; CT>342 nM; and 2-MCA>228 nM. Serum MMA, HC, CT, and 2-MCA levels were measured as described in Example 1. Serum B12 and folate were measured as described in Example 1 using a Corning Immophase kit (CIBA-Corning, Medfield, Mass.) with the normal range defined as 200-800 pg/ml for B12 and 3.8 ng/ml for folate. After evaluation, patients received weekly parenteral cyanocobalamin injections (1,000 ug IM) for 8 weeks, followed by monthly injections. Repeat laboratory and clinical assessments were administered at 8 weeks and at 6 months.\nPatients with low and low/normal serum B12 levels were treated with weekly injections of 1.0 mg B12. […] It appears that the true prevalence of previously unrecognized B12 deficiency in this elderly population was at least 14.5%."}, "[3]": {"tested_on": "serum MMA and HC", "assay": "Parenteral B12 treatment of geriatric nursing home patients with serum B12<300 pg/ml, response of serum MMA and HC (Example 4)", "format": "in vivo, human", "description": "A study was conducted with 212 elderly nursing home patients to determine serum B12, folate, MMA, and HC levels (Table 3). The significance of the results shown in Table 3 marked with “**” are as described for Table 2 (Example 3). The control group consisted of 100 subjects between the ages of 17-65 years."}, "[4]": {"conditions": "parenteral 1 mg per week for 8 weeks, nursing home patients with serum B12<300 pg/ml"}},
  "note": "“Also recorded” adds a separate entry of the source.",
  "data": [
    {"substance": "cyanocobalamin [B12]", "values": [
      {"measurement": "fraction of oral dose absorbed by diffusion", "setting": "[1]", "value": "approximately 1%"},
      {"measurement": "effect on elevated metabolite levels (serum MMA and HC, FIGS. 4 and 5)", "setting": "[2]", "value": "fall to or towards normal; also recorded: did not fully respond"},
      {"measurement": "effect on elevated serum HC levels (FIG. 10)", "setting": "[3]; [4]", "value": "fall to or towards normal"},
      {"measurement": "effect on elevated serum MMA levels (FIG. 9)", "setting": "[3]; [4]", "value": "fall to or towards normal"},
      {"measurement": "response of elevated metabolite levels to B12 treatment", "setting": "[3]; some of the nursing home patients with elevated metabolite levels", "value": "did not fully respond"}
    ]}
  ]
}
